Measurements: US10752900B2, “Oligonucleotides for modulating gene expression and uses thereof” (BIOGENERA S.P.A., priority 2012, dated 2020)

How the values were obtained:
SKNBE2c = test: Cellular proliferation assay (ATP-Lite), SKNBE2c cells; assay type: cell-based, human; conditions: Table 6
Procedure: For the purpose of assessing the gene modulation ability of the oligonucleotides of the present invention, the effect of their administration on cell viability was determined. For this purpose 5×10^3 cells per well were seeded into 96-well cell culture plates (experiments conducted in triplicate) with 100 μl of OPTI-MEM (GIBCO BRL) medium containing 4% FBS and 2 mM of L-glutammine. The PNA oligonucleotides were administered at different concentrations (1 μM-2.5 μM-5 μM-10 μM) in order to observe a dose-effect relationship. The viability of the treated cells was determined at 48, 72, 96 and 168 hours after treatment. Cell viability was assessed by means of an ATP-Lite assay (Luminescence ATP Detection Assay System, PerkinElmer) and is reported as the ratio between the average signal of the treated wells compared to the average value of the wells of untreated control cells. The cells were processed following the instructions provided with the kit. The assays were performed on the same cell lines used to determine the levels of the MYCN gene messenger and listed in the paragraph: Treatments with Oligonucleotides-QT-PCR. The PNAs having SEQ ID NO: 1-12 were also tested on different cell lines which overexpress MYCN (Kelly, SKNBE2c, RH30, […] 1 and H69). The results are shown in Table 6 and confirm the selectivity and specificity of the inhibition effect of the PNAs on the product of protein translation of the MYCN gene.

MYCN gene = test: QT-PCR, MYCN mRNA in WERI-Rb1 cells; assay type: cell-based; conditions: Table 6
Procedure: For the purpose of assessing the ability of the oligonucleotides of the present invention to modulate the expression of the target genes, their ability to reduce the quantity of messenger RNA was analyzed using the Real-Time PCR technique. For this purpose, use was made of 24-well plates, which were seeded with 5.0×10^4 cells with 0.3 ml of OPTI-MEM (GIBCO BRL) medium, 4% FBS and 2 mM L-glutammine (experiments in triplicate) per well. The cells were incubated for 24 hours at 37° C., in an atmosphere containing 5% CO2 to permit adherence to the base of the wells. For each well, the oligonucleotides were analyzed at the following final concentrations: • the antisense oligonucleotides siRNA and siRNA gapmer (i.e. the oligonucleotides containing one or more monomers of chemically modified nucleic acids at the 3' or 5' end, while in the central portion they have monomers of nucleic acids that have not been modified or have been modified at the level of the phosphodiester bond as a phosphorothioate bond) were used at 200 nM; • the antisense oligonucleotides containing phosphorothioate DNA monomers, the RNA antigene oligonucleotides (agRNA) and the oligonucleotides containing DNA monomers and LNA monomers were used at 10 μM; • the morpholino oligonucleotides were used at a concentration of 1 μM, and • the PNA oligonucleotides were administered at a concentration of 1 μM. The cells were treated with the oligonucleotides, adding FBS up to 4% 6 hours after administration of the same. After 24 hours the total RNA was extracted from each well and purified using the RNeasy Mini Kit (QIAGEN). As a control, use was made of the same cell lines as listed above treated with sterile water instead of oligonucleotides. Each RNA sample was quantified (in duplicate) using a NanoDrop ND-1000 spectrophotometer (NanoDrop Technologies). The first strand of cDNA was produced using the cDNA Synthesis Kit for RT-PCR (Roche). For the cDNA synthesis reaction a total of 1 μg of RNA was used. For the real-time PCR, 10 ng of cDNA in a final volume of 20 μl was used with SYBR Green Master Mix 2× (Applied Biosystems) (3 identical experiments were conducted in triplicate). Two housekeeping genes were used as positive controls: GAPDH and beta-actin (ACTB). The conditions of the QT-PCR reaction were: 10 min at 95° C., 20 sec at 95° C., and 30 sec at 60° C., for 50 cycles. The PNAs having SEQ ID NO: 1-12 were also tested on different cell lines which overexpress MYCN (Kelly, SKNBE2c, RH30, […] 1 and H69). The results are shown in Table 6 and confirm the selectivity and specificity of the inhibition effect of the PNAs on the product of protein translation of the MYCN gene.

| Substance | SKNBE2c % cell prol. (SKNBE2c) | WERI-Rb1 % mRNA (MYCN gene) |
| --- | --- | --- |
| SEQ ID NO: 1: PNA ATGCCGGGCATGATCT against MYCN; subject of patent EP 1618195, control sequence used for comparison (all peptide nucleic acid (PNA)) [reference compound] | 72% | 31% |
| SEQ ID NO: 2: PNA antigene oligonucleotide GGGTGGATGCGGGGGG directed against MYCN (PNA backbone, chemistry not fully specified) | 52% | 46% |
| SEQ ID NO: 3: PNA antigene oligonucleotide GATGCGGGGGGCTCCT directed against MYCN (PNA backbone, chemistry not fully specified) | 53% | 43% |
| SEQ ID NO: 4: PNA antigene oligonucleotide GTCGGCGGGAGGTAAG directed against MYCN (PNA backbone, chemistry not fully specified) | 59% | 41% |
| SEQ ID NO: 5: PNA antigene oligonucleotide GCTGGGTGGATGCGGG directed against MYCN (PNA backbone, chemistry not fully specified) | 64% | 38% |
| SEQ ID NO: 6: PNA antigene oligonucleotide TGGACGCGCTGGGTGG directed against MYCN (PNA backbone, chemistry not fully specified) | 57% | 37% |
| SEQ ID NO: 7: PNA antigene oligonucleotide CGCGCTGGGTGGATGC directed against MYCN (all peptide nucleic acid (PNA)) | 58% | 38% |
| SEQ ID NO: 8: PNA antigene oligonucleotide GTCTGGACGCGCTGGG directed against MYCN (all peptide nucleic acid (PNA)) | 56% | 40% |
| SEQ ID NO: 9: PNA antigene oligonucleotide CCCTGCAGTCGGCGGG directed against MYCN (all peptide nucleic acid (PNA)) | 64% | 36% |
| SEQ ID NO: 10: PNA antigene oligonucleotide CGGCCGCGGGCCGCCA directed against MYCN (PNA backbone, chemistry not fully specified) | 70% | 30% |
| SEQ ID NO: 11: PNA antigene oligonucleotide GGGAACTGTGTTGGAG directed against MYCN (PNA backbone, chemistry not fully specified) | 71% | 30% |
| SEQ ID NO: 12: PNA antigene oligonucleotide TGTCTGGACGCGCTGG directed against MYCN (all peptide nucleic acid (PNA)) | 71% | 30% |
